System: Panel, parental and outbred (CD-IGS) rat strains
Assay: Clinical chemistry endpoints of gentamicin-treated vs. vehicle rats
Details: for T-test value ALB / T-test value ALP / T-test value ALT / T-test value ANION GAP / T-test value AST / T-test value BICARB / T-test value BUN / T-test value CA / T-test value CHOL / T-test value CREAT / T-test value GGT / T-test value GLOB / T-test value GLU / T-test value K / T-test value NA / T-test value PHOS / T-test value TBIL / T-test value TP / T-test value TRIG: 240 mg/Kg gentamicin vs. vehicle
Description: Percent increase is defined as[(mean drug—mean vehicle control)/mean vehicle control×100] for each strain tested. The number of animals tested in each group is noted below the strain designation in parenthesis as #drug treated animals per #vehicle treated animals.
We sought to maximize the range of genetic susceptibility to the adverse drug effects across the strains.

[1] = Panel (all 6 hybrid strains together)
[2] = Parental Group (all 4 parents combined)

## gentamicin
120 mg/kg gentamicin, all strains (not shown)
  nephrotoxic phenotypes at the first dose: did not produce a robust set of phenotypes, except in LEW rats
BN rats
  T-test value ALB: 0.028
  T-test value ALP: 0.040
  T-test value ALT: 0.618
  T-test value ANION GAP: 0.369
  T-test value AST: 0.110
  T-test value BICARB: 0.642
  T-test value BUN: 0.003
  T-test value CA: 0.460
  T-test value CHOL: 0.092
  T-test value CREAT: 0.005
  T-test value GGT: 0.121
  T-test value GLOB: 0.517
  T-test value GLU: 0.937
  T-test value K: 0.264
  T-test value NA: 0.036
  T-test value PHOS: 0.021
  T-test value TBIL: 0.040
  T-test value TP: 0.133
  T-test value TRIG: 0.042
BNxF344 rats
  T-test value ALB: 0.089
  T-test value ALP: 0.000
  T-test value ALT: 0.171
  T-test value ANION GAP: 0.770
  T-test value AST: 0.005
  T-test value BICARB: 0.765
  T-test value BUN: 0.000
  T-test value CA: 0.397
  T-test value CHOL: 0.216
  T-test value CREAT: 0.000
  T-test value GLOB: 0.165
  T-test value GLU: 0.434
  T-test value K: 0.899
  T-test value NA: 0.128
  T-test value PHOS: 0.657
  T-test value TBIL: 0.745
  T-test value TP: 0.802
  T-test value TRIG: 0.000
CD-IGS rats
  T-test value ALB: 0.493
  T-test value ALP: 0.312
  T-test value ALT: 0.714
  T-test value ANION GAP: 0.222
  T-test value AST: 0.740
  T-test value BICARB: 0.030
  T-test value BUN: 0.013
  T-test value CA: 0.078
  T-test value CHOL: 0.742
  T-test value CREAT: 0.024
  T-test value GGT: 0.331
  T-test value GLOB: 0.252
  T-test value GLU: 0.104
  T-test value K: 0.229
  T-test value NA: 0.138
  T-test value PHOS: 0.620
  T-test value TBIL: 0.720
  T-test value TP: 0.807
  T-test value TRIG: 0.946
F344 rats
  T-test value ALB: 0.002
  T-test value ALP: 0.017
  T-test value ALT: 0.108
  T-test value ANION GAP: 0.428
  T-test value AST: 0.304
  T-test value BICARB: 0.080
  T-test value BUN: 0.015
  T-test value CA: 0.637
  T-test value CHOL: 0.811
  T-test value CREAT: 0.006
  T-test value GGT: 0.363
  T-test value GLOB: 0.170
  T-test value GLU: 0.169
  T-test value K: 0.287
  T-test value NA: 0.020
  T-test value PHOS: 0.350
  T-test value TBIL: 0.969
  T-test value TP: 0.000
  T-test value TRIG: 0.052
LEW rats
  T-test value ALB: 0.015
  T-test value ALP: 0.419
  T-test value ALT: 0.080
  T-test value ANION GAP: 0.283
  T-test value AST: 0.754
  T-test value BICARB: 0.061
  T-test value BUN: 0.002
  T-test value CA: 0.000
  T-test value CHOL: 0.007
  T-test value CREAT: 0.006
  T-test value GLOB: 0.167
  T-test value GLU: 0.318
  T-test value K: 0.349
  T-test value NA: 0.361
  T-test value PHOS: 0.203
  T-test value TBIL: 0.648
  T-test value TP: 0.102
  T-test value TRIG: 0.405
LEWxBN rats
  T-test value ALB: 0.081
  T-test value ALP: 0.005
  T-test value ALT: 0.293
  T-test value ANION GAP: 0.071
  T-test value AST: 0.417
  T-test value BICARB: 0.076
  T-test value BUN: 0.001
  T-test value CA: 0.000
  T-test value CHOL: 0.533
  T-test value CREAT: 0.002
  T-test value GLOB: 0.419
  T-test value GLU: 0.016
  T-test value K: 0.145
  T-test value NA: 0.955
  T-test value PHOS: 0.431
  T-test value TBIL: 0.060
  T-test value TP: 0.434
  T-test value TRIG: 0.037
LEWxF344 rats
  T-test value ALB: 0.071
  T-test value ALP: 0.144
  T-test value ALT: 0.380
  T-test value ANION GAP: 0.157
  T-test value AST: 0.375
  T-test value BICARB: 0.114
  T-test value BUN: 0.019
  T-test value CA: 0.777
  T-test value CHOL: 0.889
  T-test value CREAT: 0.014
  T-test value GGT: 0.351
  T-test value GLOB: 0.080
  T-test value GLU: 0.455
  T-test value K: 0.216
  T-test value NA: 0.227
  T-test value PHOS: 0.652
  T-test value TBIL: 0.560
  T-test value TP: 1.000
  T-test value TRIG: 0.129
LEW×F344, BN, F344, LEW and LEW×Bn strains, gentamicin treated
  increase in BUN: 2-3 fold
[1]
  T-test value ALB: 0.000
  T-test value ALP: 0.300
  T-test value ALT: 0.440
  T-test value ANION GAP: 0.802
  T-test value AST: 0.026
  T-test value BICARB: 0.204
  T-test value BUN: 0.000
  T-test value CA: 0.004
  T-test value CHOL: 0.404
  T-test value CREAT: 0.000
  T-test value GGT: 0.078
  T-test value GLOB: 0.024
  T-test value GLU: 0.497
  T-test value K: 0.032
  T-test value NA: 0.064
  T-test value PHOS: 0.091
  T-test value TBIL: 0.244
  T-test value TP: 0.036
  T-test value TRIG: 0.000
[2]
  T-test value ALB: 0.000
  T-test value ALP: 0.037
  T-test value ALT: 0.047
  T-test value ANION GAP: 0.046
  T-test value AST: 0.040
  T-test value BICARB: 0.068
  T-test value BUN: 0.000
  T-test value CA: 0.018
  T-test value CHOL: 0.327
  T-test value CREAT: 0.000
  T-test value GGT: 0.083
  T-test value GLOB: 0.638
  T-test value GLU: 0.244
  T-test value K: 0.486
  T-test value NA: 0.000
  T-test value PHOS: 0.016
  T-test value TBIL: 0.141
  T-test value TP: 0.002
  T-test value TRIG: 0.000
WKY rats
  T-test value ALB: 0.034
  T-test value ALP: 0.003
  T-test value ALT: 0.346
  T-test value ANION GAP: 0.137
  T-test value AST: 0.244
  T-test value BICARB: 0.229
  T-test value BUN: 0.264
  T-test value CA: 0.969
  T-test value CHOL: 0.232
  T-test value CREAT: 0.156
  T-test value GLOB: 0.358
  T-test value GLU: 0.742
  T-test value K: 0.881
  T-test value NA: 0.134
  T-test value PHOS: 0.014
  T-test value TBIL: 0.052
  T-test value TP: 0.254
  T-test value TRIG: 0.010
WKYxBN rats
  T-test value ALB: 0.080
  T-test value ALP: 0.008
  T-test value ALT: 0.172
  T-test value ANION GAP: 0.887
  T-test value AST: 0.575
  T-test value BICARB: 0.923
  T-test value BUN: 0.016
  T-test value CA: 0.175
  T-test value CHOL: 0.610
  T-test value CREAT: 0.026
  T-test value GGT: 0.189
  T-test value GLOB: 0.361
  T-test value GLU: 1.000
  T-test value K: 0.114
  T-test value NA: 0.401
  T-test value PHOS: 0.118
  T-test value TBIL: 0.020
  T-test value TP: 0.070
  T-test value TRIG: 0.032
WKYxF344 rats
  T-test value ALB: 0.002
  T-test value ALP: 0.000
  T-test value ALT: 0.530
  T-test value ANION GAP: 0.434
  T-test value AST: 0.596
  T-test value BICARB: 0.318
  T-test value BUN: 0.005
  T-test value CA: 0.135
  T-test value CHOL: 0.867
  T-test value CREAT: 0.043
  T-test value GLOB: 0.104
  T-test value GLU: 0.375
  T-test value K: 0.270
  T-test value NA: 0.128
  T-test value PHOS: 0.010
  T-test value TBIL: 0.002
  T-test value TP: 0.125
  T-test value TRIG: 0.007
WKYxLEW rats
  T-test value ALB: 0.001
  T-test value ALP: 0.001
  T-test value ALT: 0.584
  T-test value ANION GAP: 0.429
  T-test value AST: 0.677
  T-test value BICARB: 0.085
  T-test value BUN: 0.000
  T-test value CA: 0.092
  T-test value CHOL: 0.608
  T-test value CREAT: 0.000
  T-test value GLOB: 0.365
  T-test value GLU: 0.001
  T-test value K: 0.689
  T-test value NA: 0.514
  T-test value PHOS: 0.123
  T-test value TBIL: 0.685
  T-test value TP: 0.000
  T-test value TRIG: 0.015
